Several values for one entry are separate records, joined by “and”; a condition that tells them apart may be missing. Equal values may be shown once. Read-outs that look alike come from different tables or passages of the source.
Tested on: mtrC-lacZ expression
Type: cell-based, Neisseria gonorrhoeae
Conditions: for Miller units: single well; for mtrC-lacZ β-galactosidase activity, Mean: left block of sheet (mtrCDE)
[1] = second block of sheet (c39-c76), ΔmtrR + mtrR R176E in trans, 6.25 µM
[2] = second block of sheet (c39-c76), ΔmtrR + mtrR R176E in trans, 12.5 µM
[3] = second block of sheet (c39-c76), ΔmtrR + mtrR R176E in trans, 25 µM
[4] = second block of sheet (c39-c76), ΔmtrR + mtrR R176E in trans, 50 µM

C[C@]12CC[C@@H]3c4ccc(O)cc4CC[C@H]3[C@@H]1CC[C@@H]2O [β-Estradiol, β-estradiol]
β-galactosidase activity, individual replicate (mtrR WT in cis, 50 µM hormone, single replicate values, second (right) block): 113 Miller units and 109 Miller units | β-galactosidase activity, Miller units (single replicate) (mtrR WT in cis, 50 µM, first data set (c15-c36)): 196 Miller units and 185 Miller units and 161 Miller units | β-galactosidase activity, Miller units (single replicate) (mtrR WT in cis, 50 µM, second data set (c53-c74)): 92 Miller units and 82 Miller units | β-galactosidase activity, Mean [1]: 80 Miller units | β-galactosidase activity, single replicate [1]: 96 Miller units and 78 Miller units and 89 Miller units and 60 Miller units | β-galactosidase activity, Mean [2]: 81 Miller units | β-galactosidase activity, single replicate [2]: 106 Miller units and 86 Miller units and 70 Miller units and 62 Miller units | β-galactosidase activity, Mean [3]: 94 Miller units | β-galactosidase activity, single replicate [3]: 126 Miller units and 96 Miller units and 86 Miller units and 68 Miller units | β-galactosidase activity, Mean [4]: 89 Miller units | β-galactosidase activity, single replicate [4]: 107 Miller units and 93 Miller units and 84 Miller units and 73 Miller units | Miller units (plate rows 1-4, plate columns 1-6 (first strain), 6.25 µM hormone): 104 Miller units and 79 Miller units and 90 Miller units and 61 Miller units | Miller units (plate rows 1-4, plate columns 1-6 (first strain), 12.5 µM hormone): 145 Miller units and 115 Miller units and 112 Miller units and 81 Miller units | Miller units (plate rows 1-4, plate columns 1-6 (first strain), 25 µM hormone): 166 Miller units and 152 Miller units and 162 Miller units and 114 Miller units | Miller units (plate rows 1-4, plate columns 1-6 (first strain), 50 µM hormone): 161 Miller units and 192 Miller units and 168 Miller units and 126 Miller units | Miller units (plate rows 1-4, plate columns 7-12 (second strain), 12.5 µM hormone): 165 Miller units and 161 Miller units and 99 Miller units | Miller units (plate rows 1-4, plate columns 7-12 (second strain), 25 µM hormone): 232 Miller units and 177 Miller units and 156 Miller units and 133 Miller units | Miller units (plate rows 1-4, plate columns 7-12 (second strain), 50 µM hormone): 195 Miller units and 178 Miller units and 151 Miller units and 114 Miller units | β-galactosidase activity, mtrC-lacZ, Mean (strain WT (FA19/pLES94-mtrC), hormone 6.25 µM): 131 Miller units | β-galactosidase activity, mtrC-lacZ, Mean (strain WT (FA19/pLES94-mtrC), hormone 12.5 µM): 148 Miller units | β-galactosidase activity, mtrC-lacZ, Mean (strain WT (FA19/pLES94-mtrC), hormone 25 µM): 177 Miller units | β-galactosidase activity, mtrC-lacZ, Mean (strain WT (FA19/pLES94-mtrC), hormone 50 µM): 224 Miller units | mtrC-lacZ β-galactosidase activity, Mean (strain WT, 6.25 µM hormone): 137 Miller units | β-galactosidase activity, Mean (strain WT, 6.25 µM hormone, second (right) untitled block of sheet Figure S10 (mtrC)): 44 Miller units | mtrC-lacZ β-galactosidase activity, Mean (strain WT, 12.5 µM hormone): 155 Miller units | β-galactosidase activity, Mean (strain WT, 12.5 µM hormone, second (right) untitled block of sheet Figure S10 (mtrC)): 54 Miller units | mtrC-lacZ β-galactosidase activity, Mean (strain WT, 25 µM hormone): 162 Miller units | β-galactosidase activity, Mean (strain WT, 25 µM hormone, second (right) untitled block of sheet Figure S10 (mtrC)): 60 Miller units | mtrC-lacZ β-galactosidase activity, Mean (strain WT, 50 µM hormone): 182 Miller units | β-galactosidase activity, Mean (strain WT, 50 µM hormone, second (right) untitled block of sheet Figure S10 (mtrC)): 99 Miller units | activation of mtrC (strain producing MtrR R176E): clearly weaker activation | β-galactosidase activity, mtrC-lacZ, Mean (strain ΔmtrR (FA19 ∆mtrR/pLES94-mtrC), hormone 6.25 µM): 210 Miller units | β-galactosidase activity, mtrC-lacZ, Mean (strain ΔmtrR (FA19 ∆mtrR/pLES94-mtrC), hormone 12.5 µM): 218 Miller units | β-galactosidase activity, mtrC-lacZ, Mean (strain ΔmtrR (FA19 ∆mtrR/pLES94-mtrC), hormone 25 µM): 243 Miller units | β-galactosidase activity, mtrC-lacZ, Mean (strain ΔmtrR (FA19 ∆mtrR/pLES94-mtrC), hormone 50 µM): 255 Miller units | β-galactosidase activity, mtrC-lacZ, Mean (strain ΔmtrR + mtrR D171A (pGCC3-mtrR D171A), hormone 6.25 µM): 149 Miller units | β-galactosidase activity, mtrC-lacZ, Mean (strain ΔmtrR + mtrR D171A (pGCC3-mtrR D171A), hormone 12.5 µM): 157 Miller units | β-galactosidase activity, mtrC-lacZ, Mean (strain ΔmtrR + mtrR D171A (pGCC3-mtrR D171A), hormone 25 µM): 167 Miller units | β-galactosidase activity, mtrC-lacZ, Mean (strain ΔmtrR + mtrR D171A (pGCC3-mtrR D171A), hormone 50 µM): 163 Miller units | mtrC-lacZ β-galactosidase activity, Mean (strain ΔmtrR + mtrR R176E, 6.25 µM hormone): 194 Miller units | β-galactosidase activity, Mean (strain ΔmtrR + mtrR R176E, 6.25 µM hormone, second (right) untitled block of sheet Figure S10 (mtrC)): 80 Miller units | mtrC-lacZ β-galactosidase activity, Mean (strain ΔmtrR + mtrR R176E, 12.5 µM hormone): 205 Miller units | β-galactosidase activity, Mean (strain ΔmtrR + mtrR R176E, 12.5 µM hormone, second (right) untitled block of sheet Figure S10 (mtrC)): 81 Miller units | mtrC-lacZ β-galactosidase activity, Mean (strain ΔmtrR + mtrR R176E, 25 µM hormone): 197 Miller units | β-galactosidase activity, Mean (strain ΔmtrR + mtrR R176E, 25 µM hormone, second (right) untitled block of sheet Figure S10 (mtrC)): 94 Miller units | mtrC-lacZ β-galactosidase activity, Mean (strain ΔmtrR + mtrR R176E, 50 µM hormone): 269 Miller units | β-galactosidase activity, Mean (strain ΔmtrR + mtrR R176E, 50 µM hormone, second (right) untitled block of sheet Figure S10 (mtrC)): 89 Miller units | β-galactosidase activity, mtrC-lacZ, Mean (strain ΔmtrR + mtrR WT (pGCC3-mtrR), hormone 6.25 µM): 116 Miller units | β-galactosidase activity, mtrC-lacZ, Mean (strain ΔmtrR + mtrR WT (pGCC3-mtrR), hormone 12.5 µM): 113 Miller units | β-galactosidase activity, mtrC-lacZ, Mean (strain ΔmtrR + mtrR WT (pGCC3-mtrR), hormone 25 µM): 138 Miller units | β-galactosidase activity, mtrC-lacZ, Mean (strain ΔmtrR + mtrR WT (pGCC3-mtrR), hormone 50 µM): 158 Miller units | mtrC-lacZ β-galactosidase activity, Mean (strain ΔmtrR + mtrR WT, 6.25 µM hormone): 106 Miller units | β-galactosidase activity, Mean (strain ΔmtrR + mtrR WT, 6.25 µM hormone, second (right) untitled block of sheet Figure S10 (mtrC)): 17 Miller units | mtrC-lacZ β-galactosidase activity, Mean (strain ΔmtrR + mtrR WT, 12.5 µM hormone): 117 Miller units | β-galactosidase activity, Mean (strain ΔmtrR + mtrR WT, 12.5 µM hormone, second (right) untitled block of sheet Figure S10 (mtrC)): 27 Miller units | mtrC-lacZ β-galactosidase activity, Mean (strain ΔmtrR + mtrR WT, 25 µM hormone): 136 Miller units | β-galactosidase activity, Mean (strain ΔmtrR + mtrR WT, 25 µM hormone, second (right) untitled block of sheet Figure S10 (mtrC)): 36 Miller units | mtrC-lacZ β-galactosidase activity, Mean (strain ΔmtrR + mtrR WT, 50 µM hormone): 154 Miller units | β-galactosidase activity, Mean (strain ΔmtrR + mtrR WT, 50 µM hormone, second (right) untitled block of sheet Figure S10 (mtrC)): 45 Miller units | mtrC-lacZ β-galactosidase activity, Mean (strain ΔmtrR, 6.25 µM hormone): 273 Miller units | β-galactosidase activity, Mean (strain ΔmtrR, 6.25 µM hormone, second (right) untitled block of sheet Figure S10 (mtrC)): 94 Miller units | mtrC-lacZ β-galactosidase activity, Mean (strain ΔmtrR, 12.5 µM hormone): 263 Miller units | β-galactosidase activity, Mean (strain ΔmtrR, 12.5 µM hormone, second (right) untitled block of sheet Figure S10 (mtrC)): 89 Miller units | mtrC-lacZ β-galactosidase activity, Mean (strain ΔmtrR, 25 µM hormone): 239 Miller units | β-galactosidase activity, Mean (strain ΔmtrR, 25 µM hormone, second (right) untitled block of sheet Figure S10 (mtrC)): 98 Miller units | mtrC-lacZ β-galactosidase activity, Mean (strain ΔmtrR, 50 µM hormone): 257 Miller units | β-galactosidase activity, Mean (strain ΔmtrR, 50 µM hormone, second (right) untitled block of sheet Figure S10 (mtrC)): 101 Miller units | β-galactosidase activity, Miller units (single replicate) (ΔmtrR + mtrR WT in trans, 6.25 µM, first data set (c15-c36)): 87 Miller units and 127 Miller units | β-galactosidase activity, Miller units (single replicate) (ΔmtrR + mtrR WT in trans, 6.25 µM, second data set (c53-c74)): 22 Miller units and 9 Miller units and 12 Miller units and 27 Miller units | β-galactosidase activity, Miller units (single replicate) (ΔmtrR + mtrR WT in trans, 12.5 µM, first data set (c15-c36)): 84 Miller units and 130 Miller units | β-galactosidase activity, Miller units (single replicate) (ΔmtrR + mtrR WT in trans, 12.5 µM, second data set (c53-c74)): 33 Miller units and 23 Miller units and 27 Miller units | β-galactosidase activity, Miller units (single replicate) (ΔmtrR + mtrR WT in trans, 25 µM, first data set (c15-c36)): 124 Miller units and 127 Miller units | β-galactosidase activity, Miller units (single replicate) (ΔmtrR + mtrR WT in trans, 25 µM, second data set (c53-c74)): 45 Miller units and 34 Miller units and 39 Miller units and 27 Miller units | β-galactosidase activity, Miller units (single replicate) (ΔmtrR + mtrR WT in trans, 50 µM, first data set (c15-c36)): 156 Miller units and 168 Miller units | β-galactosidase activity, Miller units (single replicate) (ΔmtrR + mtrR WT in trans, 50 µM, second data set (c53-c74)): 51 Miller units and 40 Miller units and 39 Miller units and 48 Miller units | β-galactosidase activity, Miller units (single replicate) (ΔmtrR, 6.25 µM, first data set (c15-c36)): 214 Miller units and 261 Miller units and 306 Miller units and 310 Miller units | β-galactosidase activity, Miller units (single replicate) (ΔmtrR, 6.25 µM, second data set (c53-c74)): 115 Miller units and 96 Miller units and 95 Miller units and 69 Miller units | β-galactosidase activity, Miller units (single replicate) (ΔmtrR, 12.5 µM, first data set (c15-c36)): 280 Miller units and 263 Miller units and 247 Miller units and 264 Miller units | β-galactosidase activity, Miller units (single replicate) (ΔmtrR, 12.5 µM, second data set (c53-c74)): 97 Miller units and 87 Miller units and 92 Miller units and 78 Miller units | β-galactosidase activity, Miller units (single replicate) (ΔmtrR, 25 µM, first data set (c15-c36)): 208 Miller units and 262 Miller units and 216 Miller units and 271 Miller units | β-galactosidase activity, Miller units (single replicate) (ΔmtrR, 25 µM, second data set (c53-c74)): 139 Miller units and 80 Miller units and 83 Miller units and 89 Miller units | β-galactosidase activity, Miller units (single replicate) (ΔmtrR, 50 µM, first data set (c15-c36)): 240 Miller units and 239 Miller units and 224 Miller units and 327 Miller units | β-galactosidase activity, Miller units (single replicate) (ΔmtrR, 50 µM, second data set (c53-c74)): 128 Miller units and 93 Miller units and 88 Miller units and 96 Miller units

— publication PMC10850145, “Hormonal steroids induce multidrug resistance and stress response genes in Neisseria gonorrhoeae by binding to MtrR” (Nature Communications, 2024)
